Measured values reported in patent US8658791B2, “2-substituted-6-amino-5-alkyl, alkenyl or alkynyl-4-pyrimidinecarboxylic acids and 6-substituted-4-amino-3-alkyl, alkenyl or alkynyl picolinic acids and their use as herbicides” (Dow AgroSciences, LLC, priority 2007, dated 2014).

Key:
rice (Oryza sativa) [1] = experiment: General postemergence herbicidal activity, ORYSA; assay type: in vivo; details: Oryza sativa, post-emergence, 336 h, 140 g ai/ha, postemergence spray, visual score after 14 days, 0 = no injury, 100 = complete kill; read-out: Post-emergent Weed Control ORYSA
How it was run: (§1)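 Visual injury relative to untreated plants was rated 0 to 100 percent at 14 days after treatment. Seedlings at the first or second true leaf stage had received an overhead spray at 187 L/ha of compound formulated with crop oil concentrate and Triton X-155. Solvent-blank sprayed plants served as controls.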

[2] = system: velvetleaf (Abutilon theophrasti); experiment: General preemergence herbicidal activity, ABUTH; assay type: in vivo; details: 140 g ai/ha, applied to soil surface, visual score after 20-22 days, 0 = no injury, 100 = complete kill or no emergence, read-out: Pre-emergent Weed Control ABUTH
Excerpt: (§2) Seeds of the desired test plant species were planted in a soil matrix prepared by mixing a loam soil (43 percent silt, 19 percent clay, and 38 percent sand, with a pH of about 8.1 and an organic matter content of about 1.5 percent) and sand in a 70 to 30 ratio. The soil matrix was contained in plastic pots with a surface area of 127 square centimeters. When required to ensure good germination and healthy plants, a fungicide treatment and/or other chemical or physical treatment was applied. A weighed amount, determined by the highest rate to be tested, of each test compound was placed in a 25 mL glass vial and was dissolved in 6 mL of a 97:3 v/v (volume/volume) mixture of acetone and DMSO to obtain concentrated stock solutions. […] The stock solutions obtained were diluted with 18 mL of a 0.1% v/v aqueous solution of Tween® 20 surfactant to obtain spray solutions containing the highest application rate. Additional application rates were obtained by serial dilution of 12 mL of the high rate solution into a solution containing 3 mL of 97:3 v/v mixture of acetone and DMSO and 9 mL of the 0.1% v/v aqueous solution of Tween® 20 surfactant to obtain 1/2X, 1/4X, 1/8X and 1/16X rates of the high rate. Compound requirements are based upon a 12 mL application volume at a rate of 187 L/ha. Formulated compounds were applied to the soil surface with an overhead Mandel track sprayer equipped with a […] nozzles calibrated to deliver 187 L/ha over an application area of 0.503 square meters at a spray height of 18 inches (43 cm) above the soil surface. Control pots were sprayed in the same manner with the solvent blank. The treated pots and control pots were placed in a greenhouse maintained with an approximate 15 hour photoperiod and temperatures of about 23-29° C. during the day and 22-28° C. during the night. Nutrients and water were added on a regular basis and supplemental lighting was provided with overhead metal halide 1000-Watt lamps as necessary. The water was added by top-irrigation. After 20-22 days, the condition of the test plants that germinated and grew as compared with that of the untreated plants that emerged and grew was determined visually and scored on a scale of 0 to 100 percent where 0 corresponds to no injury and 100 corresponds to complete kill or no emergence.

[3] = system: velvetleaf (Abutilon theophrasti); experiment: General postemergence herbicidal activity, ABUTH; assay type: in vivo; details: Abutilon theophrasti, post-emergence, 336 h, 140 g ai/ha, postemergence spray, visual score after 14 days, 0 = no injury, 100 = complete kill; read-out: Post-emergent Weed Control ABUTH
How it was run: as §1

[4] = system: wild poinsettia (Euphorbia heterophylla); experiment: General preemergence herbicidal activity, EPHHL; assay type: in vivo; details: 140 g ai/ha, applied to soil surface, visual score after 20-22 days, 0 = no injury, 100 = complete kill or no emergence, read-out: Pre-emergent Weed Control EPHHL
Excerpt: as §2

[5] = system: lambsquarter (Chenopodium album); experiment: General preemergence herbicidal activity, CHEAL; assay type: in vivo; details: 140 g ai/ha, applied to soil surface, visual score after 20-22 days, 0 = no injury, 100 = complete kill or no emergence, read-out: Pre-emergent Weed Control CHEAL
Excerpt: as §2

rice (Oryza sativa) [6] = experiment: General preemergence herbicidal activity, ORYSA; assay type: in vivo; details: 140 g ai/ha, applied to soil surface, visual score after 20-22 days, 0 = no injury, 100 = complete kill or no emergence, read-out: Pre-emergent Weed Control ORYSA
Excerpt: as §2

[7] = system: barnyardgrass (Echinochloa crus-galli); experiment: General postemergence herbicidal activity, ECHCG; assay type: in vivo; details: Echinochloa crus-galli, post-emergence, 336 h, 140 g ai/ha, postemergence spray, visual score after 14 days, 0 = no injury, 100 = complete kill; read-out: Post-emergent Weed Control ECHCG
How it was run: as §1

[8] = system: wild poinsettia (Euphorbia heterophylla); experiment: General postemergence herbicidal activity, EPHHL; assay type: in vivo; details: Euphorbia heterophylla, post-emergence, 336 h; 140 g ai/ha, postemergence spray, visual score after 14 days, 0 = no injury, 100 = complete kill; read-out: Post-emergent Weed Control EPHHL
How it was run: as §1

[9] = system: barnyardgrass (Echinochloa crus-galli); experiment: General preemergence herbicidal activity, ECHCG; assay type: in vivo; details: 140 g ai/ha, applied to soil surface, visual score after 20-22 days, 0 = no injury, 100 = complete kill or no emergence, read-out: Pre-emergent Weed Control ECHCG
Excerpt: as §2

[10] = system: lambsquarter (Chenopodium album); experiment: General postemergence herbicidal activity, CHEAL; assay type: in vivo; details: Chenopodium album, post-emergence, 336 h; 140 g ai/ha, postemergence spray, visual score after 14 days, 0 = no injury, 100 = complete kill; read-out: Post-emergent Weed Control CHEAL
How it was run: as §1

COc1c(Cl)ccc(-c2nc(N)c(C)c(C(=O)O)n2)c1F [Compound 53, 6-amino-2-(4-chloro-2-fluoro-3-methoxyphenyl)-5-methylpyrimidine-4-carboxylic acid]
melting point: 201 to 203 °C | plant injury at 140 g/ha (rice (Oryza sativa) [1]): 0% | pest or weed control at 140 g/ha [2]: 100% | pest or weed control at 140 g/ha [3]: 90% | pest or weed control at 140 g/ha [4]: 100% | pest or weed control at 140 g/ha [5]: 100% | plant injury at 140 g/ha (rice (Oryza sativa) [6]): 0% | pest or weed control at 140 g/ha [7]: 90% | pest or weed control at 140 g/ha [8]: 100% | pest or weed control at 140 g/ha [9]: 80% | pest or weed control at 140 g/ha [10]: 100%
